Reference: US20260356851A1, “TRICYCLIC COMPOUNDS AND USES THEREOF” (HUTCHMED LIMITED, priority 2023, published 2026)

Key:
Type in all cases: cell-based
[1] = biological target: T1, pERK1/2 (Thr202/Tyr204), NCI-1H358 (KRAS G12C) (Homo sapiens, UniProt P01116, G12C); experiment: Assay of intracellular pERK1/2 (Thr202/Tyr204) phosphorylation in NCI-H358 cells (KRAS G12C); conditions: pERK1/2, 2 days, read-out: NCI-H358 (KRAS G12C) IC50
T1 construct: pERK1/2 HTRF read-out
Method in brief: (§1)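 Cells (10000-12000/well) exposed to 3-fold compound dilutions for 2 days at 37 °C, then lysed; pERK1/2 (Thr202/Tyr204) measured by HTRF with d2 and cryptate antibodies, 665/615 nm ratio.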

[2] = biological target: T2, pERK1/2 (Thr202/Tyr204), PANC-1 (KRAS G121D) (Homo sapiens, UniProt P01116, G12D); experiment: Assay of intracellular pERK1/2 (Thr202/Tyr204) phosphorylation in PANC-1 cells (KRAS G12D); conditions: pERK1/2, 2 days, read-out: PANC-1 (KRAS G12D) IC50
T2 construct: pERK1/2 HTRF read-out
Method in brief: as §1

[3] = biological target: T3, pERK1/2 (Thr202/Tyr204), NCI-1H441 (KRAS G12V) (Homo sapiens, UniProt P01116, G12V); experiment: Assay of intracellular pERK1/2 (Thr202/Tyr204) phosphorylation in NCI-H441 cells (KRAS G12V); conditions: pERK1/2, 2 days, read-out: NCI-H441 (KRAS G12V) IC50
T3 construct: pERK1/2 HTRF read-out
Method in brief: as §1

T2 sequence (P01116 1-188 isoform P01116-2 G12D): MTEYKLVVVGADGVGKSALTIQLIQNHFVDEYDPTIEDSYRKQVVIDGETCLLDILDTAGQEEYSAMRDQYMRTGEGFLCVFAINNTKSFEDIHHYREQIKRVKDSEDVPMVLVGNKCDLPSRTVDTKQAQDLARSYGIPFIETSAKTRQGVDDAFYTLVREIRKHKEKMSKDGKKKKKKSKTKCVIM
T1 sequence (P01116 1-188 isoform P01116-2 G12C): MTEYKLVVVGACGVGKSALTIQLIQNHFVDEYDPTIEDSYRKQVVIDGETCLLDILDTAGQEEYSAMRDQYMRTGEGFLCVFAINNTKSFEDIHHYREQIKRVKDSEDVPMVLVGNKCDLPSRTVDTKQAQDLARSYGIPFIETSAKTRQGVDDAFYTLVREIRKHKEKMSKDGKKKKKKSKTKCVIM
T3 sequence (P01116 1-188 isoform P01116-2 G12V): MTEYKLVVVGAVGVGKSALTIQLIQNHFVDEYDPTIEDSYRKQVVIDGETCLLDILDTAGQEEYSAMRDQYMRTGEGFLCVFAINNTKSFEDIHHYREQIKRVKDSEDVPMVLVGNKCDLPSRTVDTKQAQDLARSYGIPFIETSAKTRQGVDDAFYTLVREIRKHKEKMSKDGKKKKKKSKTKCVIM

SMILES | IC50 [1] [nM] | IC50 [2] [nM] | IC50 [3] [nM]
C#Cc1c(F)ccc2cc(O)cc(-c3nc4c5c(nc(OC[C@@H]6C[C@@H](F)CN6C)nc5c3F)N(C(C)c3cccnc3N)[C@@H](C)CO4)c12 (single isomer, unassigned) [Compound 285, 4-((S)-10-((R or S)-1-(2-aminopyridin-3-yl)ethyl)-4-fluoro-2-(((2S,4R)-4-fluoro-1-methylpyrrolidin-2-yl)methoxy)-9-methyl-9,10-dihydro-8H-7-oxa-1,3,6,10-tetraazacyclohepta[de]naphthalen-5-yl)-5-ethynyl-6-fluoronaphthalen-2-ol] | 27 | 86 | 17
C[C@H](c1cccnc1N)N1c2nc(OC[C@@H]3C[C@@H](F)CN3C)nc3c(F)c(-c4cc(N)cc(Cl)c4C(F)(F)F)nc(c23)OC[C@@H]1C (single isomer, unassigned) [Compound 286, 3-((R or S)-1-((S)-5-(5-amino-3-chloro-2-(trifluoromethyl)phenyl)-4-fluoro-2-(((2S,4R)-4-fluoro-1-methylpyrrolidin-2-yl)methoxy)-9-methyl-8,9-dihydro-1H-7-oxa-1,3,6,10-tetraazacyclohepta[de]naphthalen-10-yl)ethyl)pyridin-2-amine] | 57 | > 100 | > 100
CC(c1cccnc1N)N1c2nc(OC[C@@H]3C[C@@H](F)CN3C)nc3c(F)c(-c4cc(N)cc(Cl)c4C(F)(F)F)nc(c23)OC[C@@H]1C (single isomer, unassigned) [Compound 287, 3-((R or S)-1-((S)-5-(5-amino-3-chloro-2-(trifluoromethyl)phenyl)-4-fluoro-2-(((2S,4R)-4-fluoro-1-methylpyrrolidin-2-yl)methoxy)-9-methyl-8,9-dihydro-10H-7-oxa-1,3,6,10-tetraazacyclohepta[de]naphthalen-10-yl)ethyl)pyridin-2-amine] | 0.2 | 2 | 0.4
[2H]C1([2H])CC[C@@]2(C([2H])([2H])Oc3nc4c5c(nc(-c6cc(N)c(F)c(C)c6C(F)(F)F)c(F)c5n3)OCCN4C(C)c3cccnc3N)C[C@@]([2H])(F)CN12 (single isomer, unassigned; diastereomer 1) [Compound 178, (*)3-(1-(5-(5-amino-4-fluoro-3-methyl-2-(trifluoromethyl)phenyl)-4-fluoro-2-(((2R or 2S,7aS)-2-fluorotetrahydro-1H-pyrrolizin-7a(5H)-yl-2,5,5-d3)methoxy-d2)-8,9-dihydro-10H-7-oxa-1,3,6,10-tetraazacyclohepta[de]naphthalen-10-yl)ethyl)pyridin-2-amine (diastereomer 1)] | 0.1 | 1 | 0.4
Cc1c(F)c(N)cc(-c2nc3c4c(nc(OC[C@@]56CCCN5C[C@@]5(CC5(F)F)C6)nc4c2F)N(C(C)c2cccnc2N)CCO3)c1C(F)(F)F (single isomer, unassigned; diastereomer 1) [Compound 238, (*)3-(1-(5-(5-amino-4-fluoro-3-methyl-2-(trifluoromethyl)phenyl)-2-(((1R or 1S,7a′S)-2,2-difluorodihydro-1′H,3′H-spiro[cyclopropane-1,2′-pyrrolizin]-7a′(5′H)-yl)methoxy)-4-fluoro-8,9-dihydro-10H-7-oxa-1,3,6,10-tetraazacyclohepta[de]naphthalen-10-yl)ethyl)pyridin-2-amine (diastereomer 1)] | 0.2 | 0.8 | 0.6
Cc1c(F)c(N)cc(-c2nc3c4c(nc(OCC56CC(F)CN5CC(F)C6)nc4c2F)N(C(C)c2cccnc2N)CCO3)c1C(F)(F)F (single isomer, unassigned; diastereomer 1) [Compound 241, (*)3-(1-(5-(5-amino-4-fluoro-3-methyl-2-(trifluoromethyl)phenyl)-2-(((2R or 2S,6R or 6S)-2,6-difluorotetrahydro-1H-pyrrolizin-7a(5H)-yl)methoxy)-4-fluoro-8,9-dihydro-10H-7-oxa-1,3,6,10-tetraazacyclohepta[de]naphthalen-10-yl)ethyl)pyridin-2-amine (diastereomer 1)] | 0.2 | 13 | 0.9
CC(c1cccnc1N)N1CCOc2nc(-c3cc(N)c(F)c(Cl)c3C(F)(F)F)c(F)c3nc(OCC45CC(F)CN4CC(F)C5)nc1c23 (single isomer, unassigned; diastereomer 1) [Compound 245, (*)3-(1-(5-(5-amino-3-chloro-4-fluoro-2-(trifluoromethyl)phenyl)-2-(((2R or 2S,6R or 6S)-2,6-difluorotetrahydro-1H-pyrrolizin-7a(5H)-yl)methoxy)-4-fluoro-8,9-dihydro-10H-7-oxa-1,3,6,10-tetraazacyclohepta[de]naphthalen-10-yl)ethyl)pyridin-2-amine (diastereomer 1)] | 0.2 | 10 | 0.5
[2H]C1([2H])CC[C@@]2(C([2H])([2H])Oc3nc4c5c(nc(-c6cc(N)c(F)c(C)c6C(F)(F)F)c(F)c5n3)OCCN4C(C)c3cccnc3N)C[C@]([2H])(F)CN12 (single isomer, unassigned; diastereomer 2) [Compound 179, (*)3-(1-(5-(5-amino-4-fluoro-3-methyl-2-(trifluoromethyl)phenyl)-4-fluoro-2-(((2R or 2S,7aS)-2-fluorotetrahydro-1H-pyrrolizin-7a(5H)-yl-2,5,5-d3)methoxy-d2)-8,9-dihydro-10H-7-oxa-1,3,6,10-tetraazacyclohepta[de]naphthalen-10-yl)ethyl)pyridin-2-amine (diastereomer 2)] | 1 | 20 | 3
Cc1c(F)c(N)cc(-c2nc3c4c(nc(OC[C@@]56CCCN5C[C@]5(CC5(F)F)C6)nc4c2F)N(C(C)c2cccnc2N)CCO3)c1C(F)(F)F (single isomer, unassigned; diastereomer 2) [Compound 239, (*)3-(1-(5-(5-amino-4-fluoro-3-methyl-2-(trifluoromethyl)phenyl)-2-(((1R or 1S,7a′S)-2,2-difluorodihydro-1′H,3′H-spiro[cyclopropane-1,2′-pyrrolizin]-7a′(5′H)-yl)methoxy)-4-fluoro-8,9-dihydro-10H-7-oxa-1,3,6,10-tetraazacyclohepta[de]naphthalen-10-yl)ethyl)pyridin-2-amine (diastereomer 2)] | 0.3 | 2 | 0.4
Cc1c(F)c(N)cc(-c2nc3c4c(nc(OCC56CC(F)CN5CC(F)C6)nc4c2F)N(C(C)c2cccnc2N)CCO3)c1C(F)(F)F (single isomer, unassigned; diastereomer 2) [Compound 242, (*)3-(1-(5-(5-amino-4-fluoro-3-methyl-2-(trifluoromethyl)phenyl)-2-(((2R or 2S,6R or 6S)-2,6-difluorotetrahydro-1H-pyrrolizin-7a(5H)-yl)methoxy)-4-fluoro-8,9-dihydro-10H-7-oxa-1,3,6,10-tetraazacyclohepta[de]naphthalen-10-yl)ethyl)pyridin-2-amine (diastereomer 2)] | 0.4 | > 100 | 3
CC(c1cccnc1N)N1CCOc2nc(-c3cc(N)c(F)c(Cl)c3C(F)(F)F)c(F)c3nc(OCC45CC(F)CN4CC(F)C5)nc1c23 (single isomer, unassigned; diastereomer 2) [Compound 246, (*)3-(1-(5-(5-amino-3-chloro-4-fluoro-2-(trifluoromethyl)phenyl)-2-(((2R or 2S,6R or 6S)-2,6-difluorotetrahydro-1H-pyrrolizin-7a(5H)-yl)methoxy)-4-fluoro-8,9-dihydro-10H-7-oxa-1,3,6,10-tetraazacyclohepta[de]naphthalen-10-yl)ethyl)pyridin-2-amine (diastereomer 2)] | 0.4 | 63 | 2

Next, values leading:

IC50 [1] [nM] | IC50 [2] [nM] | IC50 [3] [nM] | SMILES
0.4 | 0.3 | 0.5 | CC(c1cccnc1N)N1c2nc(OC[C@@]34CCCN3C[C@H](F)C4)nc3c(F)c(-c4c(C(F)(F)F)c(Cl)cc5[nH]ncc45)nc(c23)OC[C@@H]1C (single isomer, unassigned) [Compound 330]
2 | 34 | 5 | CC(c1cccnc1N)N1c2nc(OC[C@@]34CCCN3C[C@H](F)C4)nc3c(F)c(-c4c(Cl)c(C(F)(F)F)cc5[nH]ncc45)nc(c23)OC[C@@H]1C (single isomer, unassigned) [Compound 361]
14 | 41 | 25 | CC(c1cccnc1N)N1c2nc(OC[C@@]34CCCN3C[C@H](F)C4)nc3c(F)c(-c4c5c(cc6[nH]ncc46)CCC5=O)nc(c23)OC[C@@H]1C (single isomer, unassigned) [Compound 373]
3 | 2 | 5 | Cc1c(C(F)(F)F)c(-c2nc3c4c(nc(OC[C@@]56CCCN5C[C@H](F)C6)nc4c2F)N(C(C)c2cccnc2N)[C@@H](C)CO3)c2c(Cl)n[nH]c2c1F (single isomer, unassigned) [Compound 382]
23 | > 100 | 49 | CC(c1cccnc1N)N1c2nc(OC[C@@]34CCCN3C[C@H](F)C4)nc3c(F)c(-c4c(C(F)(F)F)ccc5c4CCCN5)nc(c23)OC[C@@H]1C (single isomer, unassigned; diastereomer 1) [Compound 338, (*)3-(1-((5R or 5S,9S)-4-fluoro-2-(((2R,7aS)-2-fluorotetrahydro-1H-pyrrolizin-7a(5H)-yl)methoxy)-9-methyl-5-(6-(trifluoromethyl)-1,2,3,4-tetrahydroquinolin-5-yl)-8,9-dihydro-10H-7-oxa-1,3,6,10-tetraazacyclohepta[de]naphthalen-10-yl)ethyl)pyridin-2-amine (diastereomer 1)]
